Measurements: patent US6410558B1, “Fungicides for the control of take-all disease of plants” (Monsanto Technology LLC, priority 1991, dated 2002)

How the values were obtained:
[1] = tested on: Gaeumannomyces graminis var. tritici (Ggt); assay: In vitro Assay: mycelial growth of Ggt on minimal media agar plates containing test compound; assay type: cell-based; conditions: Gaeumannomyces graminis, dark, 19-20° C., 4 to 5 days, diameter of mycelial growth
In short: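 Compounds added from acetone stock into minimal (Czapek Dox) agar; plates inoculated with three 4-mm Ggt plugs, incubated in dark at 19-20° C for 4 to 5 days. Colony diameter measured; Percent Inhibition = [1-((treated mm −4)/(control mm −4))]×100.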

[2] = tested on: Ggt; assay: In vivo Assay: control of Ggt on wheat grown in pots of Ggt-infested soil, root disease rating; set-up: species or system Gaeumannomyces graminis var. tritici; conditions: Gaeumannomyces graminis, 672 h; 0.5 mg active ingredient per pot; 'Bergen' or 'Anza' wheat in Ggt-infested soil; after four weeks; vs untreated control; read-out: In vivo, percent disease control
In short: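 Wheat ('Bergen' or 'Anza') seeds in soil infested with Ggt-colonised oats (4% v/v) treated at 0.5 mg active ingredient per pot in acetone/water with Tween 20; five pots per treatment. After four weeks, seminal roots rated 0–5; trimmed mean of three replicates converted to percent disease control versus untreated.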

**Q.** Which inhibition at 0.1 ppm ([1]; 0.1 ppm in minimal media agar, read-out: In vitro (ppm) 0.1, Percent Inhibition) does the source give for CC(CCl)NC(=O)c1c(Cl)cccc1[Si](C)(C)C (centres unmarked) [Example 171, 2-Chloro-N-(2-chloro-1-methylethyl)-6-(trimethylsilyl)benzamide] here?
**A.** 48%

**Q.** What about the inhibition at 1 ppm ([1]; 1 ppm in minimal media agar, read-out: In vitro (ppm) 1, Percent Inhibition) of the same molecule?
**A.** 88%

**Q.** And the inhibition at 10 ppm ([1]; 10 ppm in minimal media agar, read-out: In vitro (ppm) 10, Percent Inhibition)?
**A.** 97%

**Q.** What about the pest or weed control at 0.5 mg/pot [2] of the same molecule?
**A.** 87%

**Q.** And the melting point?
**A.** 150 to 151 °C
